In patent publication US10160747B2, “Compounds and methods for kinase modulation, and indications therefor” (Plexxikon Inc., priority 2016, dated 2018):

What was measured:
[1] = system: MOLM-14 F691L (endogenous FLT3 ITD and transfected FLT3 F691L); assay: MOLM-14 F691L cell proliferation assay (CellTiter-Glo); type: cell-based; settings: Homo sapiens, MOLM-14, 72 h; 3 d growth, GMean
Outline: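 MOLM-14 derivatives carrying D835Y or F691L, selected under escalating AC220, were seeded at 1×10^4 cells/well and exposed to an 8-point 1:3 compound series (1 to 0.00046 μM, 0.2% DMSO final) for three days at 37° C., 5% CO2. CellTiter-Glo luminescence (ATP content) versus concentration gave IC50.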

BA/F3-FLT3-ITD + D835Y = biological target: T1, BA/F3-FLT3-ITD + D835Y (Homo sapiens, UniProt P36888, D835Y, cells depend on it, form not given); assay: Engineered BA/F3 cell growth assay, FLT3 ITD/D835Y; type: cell-based, murine; settings: 3 d growth
T1 sequence (P36888 with tags, fused parts or gaps INS600HVDFREYEYD/D835Y): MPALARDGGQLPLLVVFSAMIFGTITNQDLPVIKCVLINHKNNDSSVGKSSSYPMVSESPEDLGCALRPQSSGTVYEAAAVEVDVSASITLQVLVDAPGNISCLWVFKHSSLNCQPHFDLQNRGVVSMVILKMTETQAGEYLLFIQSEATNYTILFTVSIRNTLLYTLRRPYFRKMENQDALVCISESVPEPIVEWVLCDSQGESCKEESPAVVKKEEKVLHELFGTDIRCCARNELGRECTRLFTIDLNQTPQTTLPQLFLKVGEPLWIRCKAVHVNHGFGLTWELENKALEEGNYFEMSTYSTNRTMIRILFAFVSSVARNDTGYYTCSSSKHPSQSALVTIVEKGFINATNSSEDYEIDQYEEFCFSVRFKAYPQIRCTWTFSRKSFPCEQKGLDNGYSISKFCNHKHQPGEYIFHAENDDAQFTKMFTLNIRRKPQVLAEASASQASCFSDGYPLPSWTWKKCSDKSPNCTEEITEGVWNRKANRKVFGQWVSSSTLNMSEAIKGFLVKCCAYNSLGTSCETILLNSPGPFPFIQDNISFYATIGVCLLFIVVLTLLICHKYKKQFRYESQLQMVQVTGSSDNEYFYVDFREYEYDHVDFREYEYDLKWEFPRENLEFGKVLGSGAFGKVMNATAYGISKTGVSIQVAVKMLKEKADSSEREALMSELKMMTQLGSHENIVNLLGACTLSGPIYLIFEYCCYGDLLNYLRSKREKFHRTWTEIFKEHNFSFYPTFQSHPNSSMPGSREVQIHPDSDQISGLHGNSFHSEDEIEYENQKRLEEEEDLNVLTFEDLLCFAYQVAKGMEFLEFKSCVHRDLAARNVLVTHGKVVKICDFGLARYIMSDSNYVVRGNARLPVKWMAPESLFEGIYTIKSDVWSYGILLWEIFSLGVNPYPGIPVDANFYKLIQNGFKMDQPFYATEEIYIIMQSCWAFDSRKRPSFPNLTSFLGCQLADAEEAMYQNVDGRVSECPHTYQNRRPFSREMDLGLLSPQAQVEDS
Outline: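 Murine Ba/F3 cells transfected with full-length FLT3 ITD/D835Y, grown without IL-3 so growth depends on FLT3. Seeded at 1×10^4 cells/well, 8-point 1:3 series to 1 μM top (0.2% DMSO), 3 days at 37 °C. CellTiter-Glo luminescence (ATP) versus concentration gave IC50.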

Row | SMILES | IC50 [1] [µM] | GI50 (BA/F3-FLT3-ITD + D835Y) [µM]
1 | Cn1cc(Nc2ncc(-c3ccc(CC(=O)NCc4ncccc4C(F)(F)F)cc3)cn2)cn1 [Compound P-0159, 2-[4-[2-[(1-methylpyrazol-4-yl)amino]pyrimidin-5-yl]phenyl]-N-[[3-(trifluoromethyl)-2-pyridyl]methyl]acetamide] | 0.0001 to 10 | 0.0001 to 10
2 | COc1cncc(NC(=O)Cc2ccc(-c3cnc(Nc4cnn(C)c4)nc3)cc2)c1 [Compound P-0133, N-(5-methoxy-3-pyridyl)-2-[4-[2-[(1-methylpyrazol-4-yl)amino]pyrimidin-5-yl]phenyl]acetamide] | 0.0001 to 10 | 0.0001 to 10
3 | Cn1cc(Nc2ncc(-c3ccc(CC(=O)Nc4cccc(C(F)(F)F)c4)cc3)cn2)cn1 [Compound P-0141, 2-[4-[2-[(1-methylpyrazol-4-yl)amino]pyrimidin-5-yl]phenyl]-N-[3-(trifluoromethyl)phenyl]acetamide] | 0.0001 to 10 | 0.0001 to 10
4 | O=C(Cc1ccc(-c2cnc3[nH]c(-c4ccnc(N5CCOCC5)c4)cc3c2)cn1)Nc1ccnc(C(F)(F)F)c1 [Compound P-0181, 2-[5-[2-(2-morpholino-4-pyridyl)-1H-pyrrolo[2,3-b]pyridin-5-yl]-2-pyridyl]-N-[2-(trifluoromethyl)-4-pyridyl]acetamide] | 0.0001 to 10 | 0.0001 to 10
5 | Cn1cc(Nc2ncc(-c3ccc(CC(=O)Nc4ccc(C(F)(F)F)c(F)c4)cc3)cn2)cn1 [Compound P-0142, N-[3-fluoro-4-(trifluoromethyl)phenyl]-2-[4-[2-[(1-methylpyrazol-4-yl)amino]pyrimidin-5-yl]phenyl]acetamide] | 0.0001 to 10 | 0.0001 to 10
6 | Cn1cc(Nc2ncc(-c3ccc(CC(=O)Nc4cccc(OC(F)(F)F)c4)cc3)cn2)cn1 [Compound P-0157, 2-[4-[2-[(1-methylpyrazol-4-yl)amino]pyrimidin-5-yl]phenyl]-N-[3-(trifluoromethoxy)phenyl]acetamide] | 0.0001 to 10 | 0.0001 to 10
7 | Cn1cc(Nc2ncc(-c3ccc(CC(=O)Nc4cc(C(F)(F)F)ccn4)cc3)cn2)cn1 [Compound P-0139, 2-[4-[2-[(1-methylpyrazol-4-yl)amino]pyrimidin-5-yl]phenyl]-N-[4-(trifluoromethyl)-2-pyridyl]acetamide] | 0.0001 to 10 | 0.0001 to 10
8 | CC(C)c1cc(NC(=O)Cc2ccc(-c3cnc(Nc4cnn(C)c4)nc3)cc2F)ccn1 [Compound P-0094, 2-[2-fluoro-4-[2-[(1-methylpyrazol-4-yl)amino]pyrimidin-5-yl]phenyl]-N-(2-isopropyl-4-pyridyl)acetamide] | 0.0001 to 10 | 0.0001 to 10
